Literature values, collected in patent US20170266293A1, “METHODS OF TREATING CANCERS WITH THERAPEUTIC NANOPARTICLES” (PFIZER INC., priority 2011, published 2017).

Test system: cholangiocarcinoma
Conditions: previous studies, Pazdur, Am. J. Clin. Oncol. 1999

SMILES: CC(=O)O[C@@]12CO[C@@H]1C[C@H](O)[C@@]1(C)C(=O)[C@H](O)C3=C(C)[C@@H](OC(=O)[C@H](O)[C@@H](NC(=O)OC(C)(C)C)c4ccccc4)C[C@@](O)([C@@H](OC(=O)c4ccccc4)[C@H]21)C3(C)C [docetaxel]
- Efficacy for the treatment of cholangiocarcinoma: ineffective
